Data from patent US6943171B2, “Polycyclic guanine derivative phosphodiesterase V inhibitors” (Schering Corporation, priority 2001, dated 2005).

Each compound was assayed against PDE V isoenzyme (Homo sapiens, UniProt O76074) (assay: PDE V isoenzyme inhibition (PDE V IC50)). Conditions: bound printed as 'about <'.
Assay type: biochemical
Text: The compounds of the invention can be useful for inhibiting PDE V isoenzymes. Isoenzyme activity (potency) and isoenzyme selectivity for a compound can be evaluated in a number of ways. […] Similarly, an IC50 value may be obtained for other PDE isoenzymes, such as the PDE VI isoenzyme. Isoenzyme selectivity in this respect may be defined as the activity (potency) of a PDE inhibitor compound for a particular PDE isoenzyme as opposed to another PDE isoenzyme, for example, the activity of a compound to inhibit a PDE V isoenzyme compared to the activity of the same compound to inhibit a PDE VI isoenzyme.

| Compound | IC50 |
| --- | --- |
| CCN1C(=O)c2c(nc(OC)n2Cc2ccc(O)c(Br)c2)N2C1=N[C@@H]1CCC[C@@H]12 [Compound 5] | < 1.6 nM |
| CCN1C(=O)c2c(nc(OC)n2Cc2ccc(OC)c(Br)c2)N2C[C@@H](Cc3ccccc3)N=C12 [Compound 3] | < 4.1 nM |
| CCOc1nc2c(n1Cc1ccc(O)c(Br)c1)C(=O)N(CC)C1=N[C@H](Cc3ccccc3F)CN12 [Compound 22] | < 4.1 nM |
| CCN1C(=O)c2c(nc(C(=O)NC)n2Cc2ccc(O)c(Cl)c2)N2C[C@@H](Cc3ccccc3)N=C12 [Compound 9] | < 4.1 nM |
| CCN1C(=O)c2c(nc(C(=O)OC)n2Cc2ccc(O)c(Cl)c2)N2C[C@@H](Cc3ccccc3)N=C12 [Compound 11] | < 1.6 nM |
| CCN1C(=O)c2c(nc(Br)n2Cc2ccc(O)c(Cl)c2)N2C[C@@H](Cc3ccc(F)cc3)N=C12 [Compound 21] | < 2.2 nM |
| CCN1C(=O)c2c(nc(Br)n2Cc2ccc(O)c(Br)c2)N2C[C@@H](Cc3cccc(F)c3)N=C12 [Compound 23] | < 4.1 nM |
| CCN1C(=O)c2c(nc(OC)n2Cc2ccc(OC)c(Cl)c2)N2C[C@@H](Cc3ccccc3)N=C12 [Compound 2] | < 1.6 nM |
| CCN1C(=O)c2c(nc(Br)n2Cc2ccc(O)c(Br)c2)N2C1=N[C@@H]1CCC[C@@H]12 [Compound 4] | < 1.6 nM |
| CCN1C(=O)c2c(nc(Br)n2Cc2ccc(O)c(Cl)c2)N2C[C@@H](Cc3ccccc3)N=C12 [Compound 12] | < 4.1 nM |
| CCN1C(=O)c2c(nc(OC)n2Cc2ccc(O)cc2)N2C[C@@H](Cc3ccccc3)N=C12 [Compound 8] | < 2.5 nM |
| CCN1C(=O)c2c(nc(OC)n2Cc2ccc(O)c(Br)c2)N2C[C@@H](Cc3ccccc3)N=C12 [Compound 18] | < 1.6 nM |
| CCN1C(=O)c2c(nc(Br)n2Cc2ccc(O)c(Br)c2)N2C[C@@H](Cc3ccccc3)N=C12 [Compound 13] | < 4.1 nM |
| CCOc1nc2c(n1Cc1ccc(O)c(Cl)c1)C(=O)N(CC)C1=N[C@H](C(C)C)CN12 [Compound 19] | < 4.1 nM |
| CCOc1nc2c(n1Cc1ccc(O)c(Cl)c1)C(=O)N(CC)C1=N[C@H](Cc3ccccc3)CN12 [Compound 16] | < 1.6 nM |
| CCN1C(=O)c2c(nc(Cl)n2Cc2ccc(O)cc2)N2C[C@@H](Cc3ccccc3)N=C12 [Compound 15] | < 4.1 nM |
| CCOc1nc2c(n1Cc1ccc(OC)c(Cl)c1)C(=O)N(CC)C1=N[C@H](Cc3ccccc3)CN12 [Compound 1] | < 2.2 nM |
| CCN1C(=O)c2c(nc(OC)n2Cc2ccc(O)c(Cl)c2)N2C[C@@H](Cc3ccccc3)N=C12 [Compound 17] | < 1.6 nM |
| CCN1C(=O)c2c(nc(OC)n2Cc2ccc(O)c(Cl)c2)N2C1=N[C@@H]1CCC[C@@H]12 [Compound 6] | < 4.1 nM |
| CCN1C(=O)c2c(nc(Br)n2Cc2ccc(OC)c(Br)c2)N2C[C@@H](Cc3ccccc3)N=C12 [Compound 1.3.2] | < 4.1 nM |
| CCN1C(=O)c2c(nc(C(N)=O)n2Cc2ccc(O)c(Cl)c2)N2C[C@@H](Cc3ccccc3)N=C12 [Compound 10] | < 4.1 nM |
